Experimental findings from US20240025884A1 (Dong-A ST Co., Ltd., priority 2022, published 2024) are described below.

Each structure is given as a SMILES string.

Sequence of GCN2 (Q9P2K8 whole entry): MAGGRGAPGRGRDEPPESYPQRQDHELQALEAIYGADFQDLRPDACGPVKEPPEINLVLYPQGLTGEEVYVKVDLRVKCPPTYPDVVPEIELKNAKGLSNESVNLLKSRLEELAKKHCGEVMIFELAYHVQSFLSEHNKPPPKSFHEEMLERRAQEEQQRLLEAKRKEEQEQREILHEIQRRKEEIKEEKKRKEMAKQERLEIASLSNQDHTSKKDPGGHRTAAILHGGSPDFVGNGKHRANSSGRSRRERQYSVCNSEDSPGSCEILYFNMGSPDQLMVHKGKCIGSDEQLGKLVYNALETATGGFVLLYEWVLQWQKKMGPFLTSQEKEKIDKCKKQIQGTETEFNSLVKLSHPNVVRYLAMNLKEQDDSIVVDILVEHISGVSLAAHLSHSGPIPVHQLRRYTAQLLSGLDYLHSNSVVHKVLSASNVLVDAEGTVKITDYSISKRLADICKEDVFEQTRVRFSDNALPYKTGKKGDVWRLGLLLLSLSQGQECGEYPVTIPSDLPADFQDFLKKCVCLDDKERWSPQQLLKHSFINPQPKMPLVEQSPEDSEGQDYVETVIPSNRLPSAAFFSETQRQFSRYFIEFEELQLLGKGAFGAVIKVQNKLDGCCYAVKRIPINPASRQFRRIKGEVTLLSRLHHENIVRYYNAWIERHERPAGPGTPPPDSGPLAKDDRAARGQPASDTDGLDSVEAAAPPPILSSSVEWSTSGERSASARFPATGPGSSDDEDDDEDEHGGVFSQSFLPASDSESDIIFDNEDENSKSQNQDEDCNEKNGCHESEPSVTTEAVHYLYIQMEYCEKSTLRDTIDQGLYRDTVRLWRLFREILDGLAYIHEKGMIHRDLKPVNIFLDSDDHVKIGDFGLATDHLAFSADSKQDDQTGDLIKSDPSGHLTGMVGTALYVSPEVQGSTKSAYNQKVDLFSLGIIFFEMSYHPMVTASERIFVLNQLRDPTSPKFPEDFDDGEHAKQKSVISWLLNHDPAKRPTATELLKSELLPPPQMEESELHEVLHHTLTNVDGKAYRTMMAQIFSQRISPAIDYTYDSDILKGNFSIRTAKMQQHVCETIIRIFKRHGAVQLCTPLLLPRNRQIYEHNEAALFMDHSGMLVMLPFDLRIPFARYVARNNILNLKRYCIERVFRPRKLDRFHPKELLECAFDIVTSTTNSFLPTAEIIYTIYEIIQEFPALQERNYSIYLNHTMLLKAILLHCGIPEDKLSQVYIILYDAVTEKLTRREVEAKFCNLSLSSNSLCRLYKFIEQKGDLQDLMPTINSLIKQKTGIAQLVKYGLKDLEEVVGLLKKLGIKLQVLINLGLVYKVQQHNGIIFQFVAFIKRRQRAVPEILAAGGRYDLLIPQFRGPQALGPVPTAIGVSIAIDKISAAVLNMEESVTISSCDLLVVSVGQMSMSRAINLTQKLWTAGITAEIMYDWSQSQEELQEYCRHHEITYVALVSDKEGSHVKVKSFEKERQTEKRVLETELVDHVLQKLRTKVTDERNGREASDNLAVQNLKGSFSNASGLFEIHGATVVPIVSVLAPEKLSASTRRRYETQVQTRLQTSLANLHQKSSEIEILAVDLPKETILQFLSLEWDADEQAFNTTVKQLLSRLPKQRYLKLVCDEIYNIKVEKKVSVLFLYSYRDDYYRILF

The assay addresses GCN2 (Homo sapiens (Human), UniProt Q9P2K8). The experiment in a line: GCN2 Biochemical Assay (TR-FRET, GFP-eIF2S1 substrate phosphorylation). The note with it: read-out: IC50 (GCN2 Inhibitory Activity). Put shortly:
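TR-FRET readout (Ex 340, Em 490/520 nm) after 2–3 h with Tb-labelled phospho-eIF2S1 antibody in stop mix, following a 70 min room-temperature kinase step. Reaction: in-house GCN2, GFP-eIF2S1, ATP, tRNA in Tris pH 7.5 (2× stocks 1.6 nM, 50 nM, 0.2 mM); compounds tested at 10 concentrations, with a phospho-substrate artifact counter-plate.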
Usually IC50 stands for the point on the concentration scale where inhibition reaches its midpoint. `Cc1cnc(Nc2cc(C)n(C)n2)nc1-c1c[nH]c2c(N3Cc4c(NC(=O)[C@@H]5CCNC5)cccc4C3=O)cccc12` [Example 315, (R)-N-(2-(3-(2-((1,5-dimethyl-1H-pyrazol-3-yl)amino)-5-methylpyrimidin-4-yl)-1H-indol-7-yl)-1-oxoisoindolin-4-yl)pyrrolidine-3-carboxamide]: the 50% inhibitory concentration (IC50) was under 10 nM. For `Cc1cnc(Nc2cc(C)n(C)n2)nc1-c1c[nH]c2c(NC(=O)CN3CC[C@H](Oc4ncc(F)c(N5CCOCC5)n4)C3)cccc12` [Example 188, (S)-N-(3-(2-((1,5-dimethyl-1H-pyrazol-3-yl)amino)-5-methylpyrimidin-4-yl)-1H-indol-7-yl)-2-(3-((5-fluoro-4-morpholinopyrimidin-2-yl)oxy)pyrrolidin-1-yl)acetamide] the value was under 10 nM; for `Cc1cnc(Nc2cc(C)n(C)n2)nc1-c1c[nH]c2c(NC(=O)CN3CCC(N4CCOCC4)CC3)cccc12` [Example 37, N-(3-(2-((1,5-dimethyl-1H-pyrazol-3-yl)amino)-5-methylpyrimidin-4-yl)-1H-indol-7-yl)-2-(4-morpholinopiperidin-1-yl)acetamide], 100 to 1000 nM; for `Cc1cnc(Nc2cc(C)n(C)n2)nc1-c1c[nH]c2c(N3Cc4c(cccc4-c4ccc(C(N)=O)nc4)C3=O)cccc12` [Example 474, 5-(2-(3-(2-((1,5-dimethyl-1H-pyrazol-3-yl)amino)-5-methylpyrimidin-4-yl)-1H-indol-7-yl)-1-oxoisoindolin-4-yl)picolinamide], under 10 nM.

Turning to `Cc1cnc(Nc2cc(C)n(C)n2)nc1-c1c[nH]c2c(NC(=O)CN3CC[C@H](Oc4ncc(F)c(N(C)Cc5ccccc5)n4)C3)cccc12` [Example 185, (S)-2-(3-((4-(benzyl(methyl)amino)-5-fluoropyrimidin-2-yl)oxy)pyrrolidin-1-yl)-N-(3-(2-((1,5-dimethyl-1H-pyrazol-3-yl)amino)-5-methylpyrimidin-4-yl)-1H-indol-7-yl)acetamide], the half-inhibitory concentration (IC50) is under 10 nM.

With `Cc1cnc(Nc2cc(C)n(C)n2)nc1-c1c[nH]c2c(N3Cc4ccc(C#Cc5ccccc5)cc4C3=O)cccc12` [Example 355], the 50% inhibitory concentration (IC50) was over 1000 nM. For `Cc1cnc(Nc2cc(C)n(C)n2)nc1-c1c[nH]c2c(N3Cc4cccc(Cl)c4C3=O)cccc12` [Example 273, 7-chloro-2-(3-(2-((1,5-dimethyl-1H-pyrazol-3-yl)amino)-5-methylpyrimidin-4-yl)-1H-indol-7-yl)isoindolin-1-one] the value was under 10 nM; for `Cc1cnc(Nc2cc(C)n(C)n2)nc1-c1c[nH]c2c(NC(=O)CN3CCC(Oc4cc(C(=O)NC5CC5)on4)CC3)cccc12` [Example 43, N-cyclopropyl-3-((1-(2-((3-(2-((1,5-dimethyl-1H-pyrazol-3-yl)amino)-5-methylpyrimidin-4-yl)-1H-indol-7-yl)amino)-2-oxoethyl)piperidin-4-yl)oxy)isoxazole-5-carboxamide], 10 to 100 nM.

On to `Cc1cnc(Nc2cc(C)n(C)n2)nc1-c1c[nH]c2c(NC(=O)CN3C[C@@H](Oc4ccnc(NC5CC5)n4)C[C@H]3C(=O)O)cccc12` [Example 56, (2S,4S)-4-((2-(cyclopropylamino)pyrimidin-4-yl)oxy)-1-(2-((3-(2-((1,5-dimethyl-1H-pyrazol-3-yl)amino)-5-methylpyrimidin-4-yl)-1H-indol-7-yl)amino)-2-oxoethyl)pyrrolidine-2-carboxylic acid], for which the half-maximal inhibitory concentration (IC50) was in the range of 10 to 100 nM. In the case of `Cc1cnc(Nc2cc(C)n(C)n2)nc1-c1c[nH]c2c(N3Cc4c(ccnc4-c4cncc(F)c4)C3=O)cccc12` [Example 503, 2-(3-(2-((1,5-dimethyl-1H-pyrazol-3-yl)amino)-5-methylpyrimidin-4-yl)-1H-indol-7-yl)-4-(5-fluoropyridin-3-yl)-2,3-dihydro-1H-pyrrolo[3,4-c]pyridin-1-one] it was under 10 nM; in that of `Cc1cnc(Nc2cc(C)n(C)n2)nc1-c1c[nH]c2c(NC(=O)CN3CC[C@H](Oc4ncc(F)c(N5CCSCC5)n4)C3)cccc12` [Example 189, (S)-N-(3-(2-((1,5-dimethyl-1H-pyrazol-3-yl)amino)-5-methylpyrimidin-4-yl)-1H-indol-7-yl)-2-(3-((5-fluoro-4-thiomorpholinopyrimidin-2-yl)oxy)pyrrolidin-1-yl)acetamide], under 10 nM; in that of `Cc1cnc(Nc2cc(C)n(C)n2)nc1-c1c[nH]c2c(N3Cc4c(cccc4N4CCOCC4)C3=O)cccc12` [Example 352, 2-(3-(2-((1,5-dimethyl-1H-pyrazol-3-yl)amino)-5-methylpyrimidin-4-yl)-1H-indol-7-yl)-4-morpholinoisoindolin-1-one], under 10 nM. Turning to `Cc1cnc(Nc2cc(C)n(C)n2)nc1-c1c[nH]c2c(NC(=O)CN3CC[C@H](Oc4ccnc(Cl)c4)C3)cccc12` [Example 91], the IC50 lay within 10 to 100 nM.

As for `Cc1cnc(Nc2cc(C)n(C)n2)nc1-c1c[nH]c2c(N3Cc4c(-c5cncc(F)c5)ccc(F)c4C3=O)cccc12` [Example 484, 2-(3-(2-((1,5-dimethyl-1H-pyrazol-3-yl)amino)-5-methylpyrimidin-4-yl)-1H-indol-7-yl)-7-fluoro-4-(5-fluoropyridin-3-yl)isoindolin-1-one], the 50% inhibitory concentration (IC50) is under 10 nM. In the case of `Cc1cnc(Nc2cc(C)n(C)n2)nc1-c1c[nH]c2c(NC(=O)CN3CC[C@H](Oc4ccnc(N5CCCCC5)n4)C3)cccc12` [Example 223, (S)-N-(3-(2-((1,5-dimethyl-1H-pyrazol-3-yl)amino)-5-methylpyrimidin-4-yl)-1H-indol-7-yl)-2-(3-((2-(piperidin-1-yl)pyrimidin-4-yl)oxy)pyrrolidin-1-yl)acetamide] it was 10 to 100 nM. In the case of `Cc1cc(Nc2ncc(C3CC3)c(-c3c[nH]c4c(NC(=O)CN5CC[C@H](Oc6ccnc(NC7CC7)n6)C5)cccc34)n2)nn1C` [Example 12, (S)-N-(3-(5-cyclopropyl-2-((1,5-dimethyl-1H-pyrazol-3-yl)amino)pyrimidin-4-yl)-1H-indol-7-yl)-2-(3-((2-(cyclopropylamino)pyrimidin-4-yl)oxy)pyrrolidin-1-yl)acetamide] it was 10 to 100 nM; in that of `Cc1cnc(Nc2cc(C)n(C)n2)nc1-c1c[nH]c2c(N3Cc4c(-c5ccncc5)ccc([N+](=O)[O-])c4C3=O)cccc12` [Example 489, 2-(3-(2-((1,5-dimethyl-1H-pyrazol-3-yl)amino)-5-methylpyrimidin-4-yl)-1H-indol-7-yl)-7-nitro-4-(pyridin-4-yl)isoindolin-1-one], under 10 nM. For `Cc1cnc(Nc2cc(C)n(C)n2)nc1-c1c[nH]c2c(N3Cc4ccc(-c5ccccc5)cc4C3=O)cccc12` [Example 379, 2-(3-(2-((1,5-dimethyl-1H-pyrazol-3-yl)amino)-5-methylpyrimidin-4-yl)-1H-indol-7-yl)-6-phenylisoindolin-1-one] the value was 100 to 1000 nM; for `CCN(CC)c1ccnc(O[C@H]2CCN(CC(=O)Nc3cccc4c(-c5nc(Nc6cc(C)n(C)n6)ncc5C)c[nH]c34)C2)n1` [Example 172, (S)-2-(3-((4-(diethylamino)pyrimidin-2-yl)oxy)pyrrolidin-1-yl)-N-(3-(2-((1,5-dimethyl-1H-pyrazol-3-yl)amino)-5-methylpyrimidin-4-yl)-1H-indol-7-yl)acetamide], under 10 nM. Regarding `Cc1cnc(Nc2cc(C)n(C)n2)nc1-c1c[nH]c2c(NC(=O)CN3CC[C@H](Oc4ncnc(Cl)c4C)C3)cccc12` [Example 94, (S)-2-(3-((6-chloro-5-methylpyrimidin-4-yl)oxy)pyrrolidin-1-yl)-N-(3-(2-((1,5-dimethyl-1H-pyrazol-3-yl)amino)-5-methylpyrimidin-4-yl)-1H-indol-7-yl)acetamide], the half-maximal inhibitory concentration (IC50) fell in the range of 10 to 100 nM. Consider `Cc1cnc(Nc2cc(C)n(C)n2)nc1-c1c[nH]c2c(NC(=O)CN3C[C@@H](Oc4ccnc(NC5CC5)n4)C[C@H]3CN)cccc12` [Example 59, 2-((2S,4S)-2-(aminomethyl)-4-((2-(cyclopropylamino)pyrimidin-4-yl)oxy)pyrrolidin-1-yl)-N-(3-(2-((1,5-dimethyl-1H-pyrazol-3-yl)amino)-5-methylpyrimidin-4-yl)-1H-indol-7-yl)acetamide], for which the half-inhibitory concentration (IC50) is under 10 nM. For `Cc1cnc(Nc2cc(C)n(C)n2)nc1-c1c[nH]c2c(NC(=O)CN3CCC(Oc4ccncc4)C3)cccc12` (centres unmarked) [Example 76, N-(3-(2-((1,5-dimethyl-1H-pyrazol-3-yl)amino)-5-methylpyrimidin-4-yl)-1H-indol-7-yl)-2-(3-(pyridin-4-yloxy)pyrrolidin-1-yl)acetamide] the value was under 10 nM; for `Cc1cnc(Nc2cc(C)n(C)n2)nc1-c1c[nH]c2c(NC(=O)CN3CCC(Oc4cc(C(F)(F)F)n(C)n4)C3)cccc12` (stereo in doubt) [Example 117, (R)-N-(3-(2-((1,5-dimethyl-1H-pyrazol-3-yl)amino)-5-methylpyrimidin-4-yl)-1H-indol-7-yl)-2-(3-((1-methyl-5-(trifluoromethyl)-1H-pyrazol-3-yl)oxy)pyrrolidin-1-yl)acetamide], 10 to 100 nM. In the case of `Cc1cnc(Nc2cc(C)n(C)n2)nc1-c1c[nH]c2c(NC(=O)CN3CC[C@H](Oc4cc(F)nc(NC5CC5)n4)C3)cccc12` [Example 234, (S)-2-(3-((2-(cyclopropylamino)-6-fluoropyrimidin-4-yl)oxy)pyrrolidin-1-yl)-N-(3-(2-((1,5-dimethyl-1H-pyrazol-3-yl)amino)-5-methylpyrimidin-4-yl)-1H-indol-7-yl)acetamide] it was under 10 nM; in that of `Cc1cnc(Nc2cc(C)n(C)n2)nc1-c1c[nH]c2c(N3Cc4c(cccc4-c4ccnc(N(C)C)c4)C3=O)cccc12` [Example 475, 2-(3-(2-((1,5-dimethyl-1H-pyrazol-3-yl)amino)-5-methylpyrimidin-4-yl)-1H-indol-7-yl)-4-(2-(dimethylamino)pyridin-4-yl)isoindolin-1-one], under 10 nM. For `Cc1ccccc1-c1cccc2c1CN(c1cccc3c(-c4nc(Nc5cc(C)n(C)n5)ncc4C)c[nH]c13)C2=O` [Example 440, 2-(3-(2-((1,5-dimethyl-1H-pyrazol-3-yl)amino)-5-methylpyrimidin-4-yl)-1H-indol-7-yl)-4-(o-tolyl)isoindolin-1-one] the value was 10 to 100 nM.
